Measurements reported in the CheMixHub ionic liquid set.

Test: xn = mol fraction of the nth substance listed
Conditions: 308.15 K, 101 kPa

CCCCCCCCCCCCCCCC[n+]1ccccc1.[Cl-] + NCC(=O)O + O
Conditions | electrical conductivity [S/m]
x2 = 0, x1 = 5.4e-07 | 0.000222
x2 = 0, x1 = 9e-07 | 0.00029
x2 = 0, x1 = 1.62e-06 | 0.0004
x2 = 0, x1 = 2.34e-06 | 0.000465
x2 = 0, x1 = 2.88e-06 | 0.000581
x2 = 0, x1 = 3.78e-06 | 0.000705
x2 = 0, x1 = 4.5e-06 | 0.000794
x2 = 0, x1 = 5.59e-06 | 0.000937
x2 = 0, x1 = 6.85e-06 | 0.00106
x2 = 0, x1 = 7.93e-06 | 0.001222
x2 = 0, x1 = 9.01e-06 | 0.001438
x2 = 0, x1 = 1.009e-05 | 0.00159
x2 = 0, x1 = 1.117e-05 | 0.001701
x2 = 0, x1 = 1.442e-05 | 0.00209
x2 = 0, x1 = 1.55e-05 | 0.00219
x2 = 0, x1 = 1.766e-05 | 0.00237
x2 = 0, x1 = 1.982e-05 | 0.00248
x2 = 0, x1 = 2.18e-05 | 0.00259
x2 = 0, x1 = 2.397e-05 | 0.00264
x2 = 0, x1 = 2.595e-05 | 0.00278
x2 = 0, x1 = 2.991e-05 | 0.00297
x2 = 0, x1 = 3.406e-05 | 0.00314
x2 = 0, x1 = 3.784e-05 | 0.00328
x2 = 0, x1 = 4.162e-05 | 0.00342
x2 = 0, x1 = 4.541e-05 | 0.00356
x2 = 0, x1 = 4.919e-05 | 0.00369
x2 = 0, x1 = 5.099e-05 | 0.00375
x2 = 0, x1 = 5.982e-05 | 0.00403
x2 = 0, x1 = 6.829e-05 | 0.00432
x2 = 0, x1 = 7.64e-05 | 0.00454
x2 = 0, x1 = 8.415e-05 | 0.00477
x2 = 0, x1 = 9.171e-05 | 0.00497
x2 = 0, x1 = 9.892e-05 | 0.00516
x2 = 0, x1 = 0.0001058 | 0.00533
x2 = 0, x1 = 0.0001124 | 0.0055
x2 = 0, x1 = 0.0001189 | 0.00565
x2 = 2.018e-05, x1 = 5.4e-07 | 0.0001
x2 = 2.018e-05, x1 = 9e-07 | 0.000245
x2 = 2.018e-05, x1 = 1.62e-06 | 0.000348
x2 = 2.018e-05, x1 = 2.34e-06 | 0.000456
x2 = 2.018e-05, x1 = 2.88e-06 | 0.000621
x2 = 2.018e-05, x1 = 3.78e-06 | 0.000716
x2 = 2.018e-05, x1 = 4.51e-06 | 0.000822
x2 = 2.018e-05, x1 = 5.59e-06 | 0.000964
x2 = 2.018e-05, x1 = 6.85e-06 | 0.00108
x2 = 2.018e-05, x1 = 7.93e-06 | 0.001203
x2 = 2.018e-05, x1 = 9.01e-06 | 0.001314
x2 = 2.018e-05, x1 = 1.009e-05 | 0.001427
x2 = 2.018e-05, x1 = 1.117e-05 | 0.001546
x2 = 2.018e-05, x1 = 1.334e-05 | 0.001813
x2 = 2.018e-05, x1 = 1.55e-05 | 0.00205
x2 = 2.018e-05, x1 = 1.766e-05 | 0.00226
x2 = 2.018e-05, x1 = 1.982e-05 | 0.0024
x2 = 2.018e-05, x1 = 2.181e-05 | 0.00252
x2 = 2.018e-05, x1 = 2.397e-05 | 0.00262
x2 = 2.018e-05, x1 = 2.595e-05 | 0.0027
x2 = 2.018e-05, x1 = 3.009e-05 | 0.00285
x2 = 2.018e-05, x1 = 3.406e-05 | 0.00306
x2 = 2.018e-05, x1 = 3.802e-05 | 0.00323
x2 = 2.018e-05, x1 = 4.181e-05 | 0.00336
x2 = 2.018e-05, x1 = 4.559e-05 | 0.0035
x2 = 2.018e-05, x1 = 4.92e-05 | 0.00362
x2 = 2.018e-05, x1 = 5.1e-05 | 0.00368
x2 = 2.018e-05, x1 = 6.001e-05 | 0.00392
x2 = 2.018e-05, x1 = 6.848e-05 | 0.00422
x2 = 2.018e-05, x1 = 7.658e-05 | 0.00445
x2 = 2.018e-05, x1 = 8.433e-05 | 0.00467
x2 = 2.018e-05, x1 = 9.19e-05 | 0.00486
x2 = 2.018e-05, x1 = 9.911e-05 | 0.00506
x2 = 2.018e-05, x1 = 0.000106 | 0.00523
x2 = 2.018e-05, x1 = 0.0001126 | 0.00538
x2 = 2.018e-05, x1 = 0.0001191 | 0.00553
x2 = 0.0002, x1 = 5.4e-07 | 0.000232
x2 = 0.0002, x1 = 9e-07 | 0.000298
x2 = 0.0002, x1 = 1.62e-06 | 0.00042
x2 = 0.0002, x1 = 2.16e-06 | 0.000524
x2 = 0.0002, x1 = 2.89e-06 | 0.000628
x2 = 0.0002, x1 = 3.79e-06 | 0.000685
x2 = 0.0002, x1 = 4.51e-06 | 0.000861
x2 = 0.0002, x1 = 5.59e-06 | 0.001036
x2 = 0.0002, x1 = 6.67e-06 | 0.00115
x2 = 0.0002, x1 = 7.75e-06 | 0.00127
x2 = 0.0002, x1 = 8.84e-06 | 0.001426
x2 = 0.0002, x1 = 9.92e-06 | 0.00157
x2 = 0.0002, x1 = 1.1e-05 | 0.00168
x2 = 0.0002, x1 = 1.316e-05 | 0.001913
x2 = 0.0002, x1 = 1.533e-05 | 0.00214
x2 = 0.0002, x1 = 1.731e-05 | 0.00228
x2 = 0.0002, x1 = 1.947e-05 | 0.00243
x2 = 0.0002, x1 = 2.146e-05 | 0.00253
x2 = 0.0002, x1 = 2.344e-05 | 0.00262
x2 = 0.0002, x1 = 2.56e-05 | 0.00272
x2 = 0.0002, x1 = 2.957e-05 | 0.00291
x2 = 0.0002, x1 = 3.336e-05 | 0.00307
x2 = 0.0002, x1 = 3.732e-05 | 0.00323
x2 = 0.0002, x1 = 4.111e-05 | 0.00337
x2 = 0.0002, x1 = 4.472e-05 | 0.0035
x2 = 0.0002, x1 = 4.832e-05 | 0.00363
x2 = 0.0002, x1 = 5.012e-05 | 0.0037
x2 = 0.0002, x1 = 5.878e-05 | 0.00399
